Results as given in patent US20240043439A1, “COMPOUNDS AS C5AR INHIBITORS” (Kira Pharmaceuticals (Suzhou) Ltd., priority 2020, published 2024).

Experiments:
[1] = molecular target: human C5a receptor (C5aR) (Homo sapiens (Human), UniProt P21730); assay: Inhibition of C5a-C5aR binding (biotinylated human C5a, U937/C5aR cells, FACS)
Description: U937 cells were originally obtained from the American Type Culture Collection (ATCC) and transfected with human C5a receptor (C5aR). U937/C5aR cells were cultured at 37° C., 5% CO2 in RPMI1640 (Gibco) supplemented with 10% FBS (Gibco) and 350 µg/ml Geneticin (Gibco) and passaged every 3 days to maintain the density range from […] to 2×10^6 cells/ml.
Human C5a biotinylation was performed according to the procedure provided by manufacturer (Thermo Scientific, A39257). 10 mM solution of Sulfo-NHS-LC-Biotin was prepared by adding 180μl ultrapure H2O to the 1 mg vial immediately. 12 μl 10 mM biotin reagent was added to […] human C5a solution, gently pipetted for 3 seconds, and incubated on ice for 2 hours. Amicon ultra-0.5 centrifuge filter device (Millipore, UFC5003BK) was pre-rinsed with Milli-Q H2O, centrifuged at 14000 g for 5 min immediately before use. Up to […] sample (diluted by PBS) was added to the device and capped. The device was spinned at 14000 g for approximately 5 min. 250 μl PBS was added to the filter device, spinned at 14000 g for 5 min, and repeatedly washed 6 times. The filter device was separated from the microcentrifuge tube and placed upside down in a clean microcentrifuge tube, spinned for 2 min at 1000 g to transfer the concentrated sample from the device to the tube.
U937/C5aR cells were collected and washed twice by PBS, cells were suspended in PBS+0.1% BSA buffer at the density of 3×10^6 cells/ml. 100 μl cell suspension was added to a 96 well microplate. 50 μl compound diluted in assay buffer and 50 μl biotinylated ligand human C5a (30 nM) were added to corresponding wells in order and the plate was incubated on ice for 120 min and then centrifuged at 1000 rpm for 3-5 min at 4° C. Supernatant was removed and cells were washed by pre-cold PBS twice. 100 μl FITC conjugated streptavidin was added to cells, incubated on ice for another 30 min, and then centrifuged at 1000 rpm for 3-5 min at 4° C. Supernatant was removed and cells were washed by pre-cold PBS twice. 150 μl PBS was added to suspend the cells and signals were detected by FACS (Beckman, Cytoflex).

C5aR = C5aR (Homo sapiens (Human), UniProt P21730); assay: Calcium mobilization (U937/C5aR or HEK293/C5aR cells, FLIPR); format: cell-based; conditions: agonist human C5a at EC80, FLIPR
Procedure, shortened: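 FLIPR calcium-flux read-out using Fluo-4 Direct-loaded C5aR-expressing U937 or HEK293 cells stimulated with human C5a at its EC80. Compound was applied for 60 min before dye loading (50 min at 37 °C plus 10 min at room temperature) and agonist addition.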

Sequence of human C5a receptor (C5aR) (P21730 whole entry): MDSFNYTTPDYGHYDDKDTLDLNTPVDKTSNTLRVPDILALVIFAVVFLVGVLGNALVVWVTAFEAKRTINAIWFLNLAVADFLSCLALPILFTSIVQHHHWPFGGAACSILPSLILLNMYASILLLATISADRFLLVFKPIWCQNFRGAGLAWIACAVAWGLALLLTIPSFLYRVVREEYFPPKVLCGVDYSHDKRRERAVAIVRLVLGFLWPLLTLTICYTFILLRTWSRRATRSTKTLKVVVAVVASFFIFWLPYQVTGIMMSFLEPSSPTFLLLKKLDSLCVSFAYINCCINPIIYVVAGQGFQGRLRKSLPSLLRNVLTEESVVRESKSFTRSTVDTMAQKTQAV
Sequence of C5aR (P21730 whole entry): as above

IC50 [1]	IC50 (C5aR)	Compound
2 to 5 µM	0.5 to 2 µM	Cc1cccc(F)c1C(=O)N1[C@@H]2CCC[C@@H]2C[C@H](C(=O)Nc2ccc(NC=O)c(O)c2)[C@@H]1c1ccc(NC2CCCC2)cc1 (racemic) [Compound 68, cis-2-(4-(cyclopentylamino)phenyl)-1-(2-fluoro-6-methylbenzoyl)-N-(4-formamido-3-hydroxyphenyl)octahydro-1H-cyclopenta[b]pyridine-3-carboxamide]
2 to 5 µM	> 10 µM	Cc1ccc(NC(=O)[C@H]2CCCN(S(=O)(=O)c3c(Cl)cccc3Cl)[C@H]2c2ccc(NC3CCCC3)cc2)cc1C(F)(F)F [Compound 20, (2R,3S)-2-(4-(cyclopentylamino)phenyl)-1-((2,6-dichlorophenyl)sulfonyl)-N-(4-methyl-3-(trifluoromethyl)phenyl)piperidine-3-carboxamide]
2 to 5 µM	2 to 10 µM	Cc1cccc(F)c1C(=O)N1[C@@H]2CCC[C@@H]2C[C@H](C(=O)Nc2ccc(F)c(C(F)(F)F)c2)[C@@H]1c1ccc(NC2CCCC2)cc1 (relative stereo) [Compound 61, cis-2-(4-(cyclopentylamino)phenyl)-N-(4-fluoro-3-(trifluoromethyl)phenyl)-1-(2-fluoro-6-methylbenzoyl)octahydro-1H-cyclopenta[b]pyridine-3-carboxamide]
0.05 to 0.5 µM	0.5 to 2 µM	Cc1ccc(NC(=O)[C@H]2C[C@H]3COCC3N(C(=O)c3c(C)cccc3F)[C@H]2c2ccc(NC3CCOCC3)cc2)cc1C(F)(F)F (mixture of isomers) [Compound 135, cis-1-(2-fluoro-6-methylbenzoyl)-N-(4-methyl-3-(trifluoromethyl)phenyl)-2-(4-((tetrahydro-2H-pyran-4-yl)amino)phenyl)octahydrofuro[3,4-b]pyridine-3-carboxamide]
2 to 5 µM	> 10 µM	Cc1ccc(NC(=O)[C@H]2CCCN(S(=O)(=O)c3ccccc3)[C@H]2c2ccc(NC3CCCC3)cc2)cc1C(F)(F)F [Compound 34, (2R,3S)-2-(4-(cyclopentylamino)phenyl)-N-(4-methyl-3-(trifluoromethyl)phenyl)-1-(phenylsulfonyl)piperidine-3-carboxamide]
2 to 5 µM	> 10 µM	Cc1ccc(NC(=O)[C@H]2CCCN(S(=O)(=O)c3ccccc3OC(F)(F)F)[C@H]2c2ccc(NC3CCCC3)cc2)cc1C(F)(F)F [Compound 24, (2R,3S)-2-(4-(cyclopentylamino)phenyl)-N-(4-methyl-3-(trifluoromethyl)phenyl)-1-((2-(trifluoromethoxy)phenyl)sulfonyl)piperidine-3-carboxamide]
2 to 5 µM	2 to 10 µM	Cc1ccc(NC(=O)[C@H]2CCCN(S(=O)(=O)c3ccc4ccccc4c3)[C@H]2c2ccc(NC3CCCC3)cc2)cc1C(F)(F)F [Compound 32, (2R,3S)-2-(4-(cyclopentylamino)phenyl)-N-(4-methyl-3-(trifluoromethyl)phenyl)-1-(naphthalen-2-ylsulfonyl)piperidine-3-carboxamide]
2 to 5 µM	2 to 10 µM	Cc1ccc(NC(=O)[C@H]2CCCN(c3ccnc(Cl)n3)[C@H]2c2ccc(NC3CCCC3)cc2)cc1C(F)(F)F [Compound 2, (2R,3S)-1-(2-chloropyrimidin-4-yl)-2-(4-(cyclopentylamino)phenyl)-N-(4-methyl-3-(trifluoromethyl)phenyl)piperidine-3-carboxamide]
2 to 5 µM	2 to 10 µM	Cc1ccc(NC(=O)[C@H]2CCCN(c3ccncn3)[C@H]2c2ccc(NC3CCCC3)cc2)cc1C(F)(F)F [Compound 4, (2R,3S)-2-(4-(cyclopentylamino)phenyl)-N-(4-methyl-3-(trifluoromethyl)phenyl)-1-(pyrimidin-4-yl)piperidine-3-carboxamide]
0.5 to 2 µM	2 to 10 µM	Cc1ccc(NC(=O)[C@H]2CCCN(S(=O)(=O)c3cc(F)ccc3C)[C@H]2c2ccc(NC3CCCC3)cc2)cc1C(F)(F)F [Compound 17, (2R,3S)-2-(4-(cyclopentylamino)phenyl)-1-((5-fluoro-2-methylphenyl)sulfonyl)-N-(4-methyl-3-(trifluoromethyl)phenyl)piperidine-3-carboxamide]
0.5 to 2 µM	> 10 µM	Cc1ccc(C)c(S(=O)(=O)N2CCC[C@H](C(=O)Nc3ccc(C)c(C(F)(F)F)c3)[C@@H]2c2ccc(NC3CCCC3)cc2)c1 [Compound 10, (2R,3S)-2-(4-(cyclopentylamino)phenyl)-1-((2,5-dimethylphenyl)sulfonyl)-N-(4-methyl-3-(trifluoromethyl)phenyl)piperidine-3-carboxamide]
2 to 5 µM	2 to 10 µM	Cc1ccc(NC(=O)[C@H]2CCCN(S(=O)(=O)c3ccccc3[N+](=O)[O-])[C@H]2c2ccc(NC3CCCC3)cc2)cc1C(F)(F)F [Compound 14, (2R,3S)-2-(4-(cyclopentylamino)phenyl)-N-(4-methyl-3-(trifluoromethyl)phenyl)-1-((2-nitrophenyl)sulfonyl)piperidine-3-carboxamide]
0.5 to 2 µM	2 to 10 µM	Cc1ccc(NC(=O)[C@H]2CCCN(C(=O)c3c(C)noc3C)[C@H]2c2ccc(NC3CCCC3)cc2)cc1C(F)(F)F [Compound 190, (2R,3S)-2-(4-(cyclopentylamino)phenyl)-1-(3,5-dimethylisoxazole-4-carbonyl)-N-(4-methyl-3-(trifluoromethyl)phenyl)piperidine-3-carboxamide]
2 to 5 µM	> 10 µM	Cc1ccc(NC(=O)[C@H]2CCCN(S(=O)(=O)c3cccc(F)c3C)[C@H]2c2ccc(NC3CCCC3)cc2)cc1C(F)(F)F [Compound 18, (2R,3S)-1-((3-fluoro-2-methylphenyl)sulfonyl)-2-(4-(cyclopentylamino)phenyl)-N-(4-methyl-3-(trifluoromethyl)phenyl)piperidine-3-carboxamide]
0.05 to 0.5 µM	2 to 10 µM	Cc1cccc(F)c1C(=O)N1[C@@H]2CCC[C@@H]2C[C@H](C(=O)Nc2ccc3ncsc3c2)[C@@H]1c1ccc(NC2CCCC2)cc1 (racemic) [Compound 69, cis-N-(benzo[d]thiazol-6-yl)-2-(4-(cyclopentylamino)phenyl)-1-(2-fluoro-6-methylbenzoyl)octahydro-1H-cyclopenta[b]pyridine-3-carboxamide]
2 to 5 µM	2 to 10 µM	Cc1ccc(NC(=O)[C@H]2CCCN(S(=O)(=O)c3ccc(F)cc3C)[C@H]2c2ccc(NC3CCCC3)cc2)cc1C(F)(F)F [Compound 15, (2R,3S)-2-(4-(cyclopentylamino)phenyl)-1-((4-fluoro-2-methylphenyl)sulfonyl)-N-(4-methyl-3-(trifluoromethyl)phenyl)piperidine-3-carboxamide]
2 to 5 µM	2 to 10 µM	Cc1cccc(F)c1C(=O)N1C2COC[C@@H]2C[C@H](C(=O)Nc2ccccc2)[C@@H]1c1ccc(NC2CCOCC2)cc1 (relative stereo) [Compound 129, cis-1-(2-fluoro-6-methylbenzoyl)-N-phenyl-2-(4-((tetrahydro-2H-pyran-4-yl)amino)phenyl)octahydrofuro[3,4-b]pyridine-3-carboxamide]

Compound	IC50 [1]	IC50 (C5aR)
Cc1cccc(F)c1C(=O)N1C(c2ccc(NC3CCCC3)cc2)C(C(=O)Nc2ccc3c(c2)CCNC3)C[C@@H]2CCC[C@@H]21 (relative stereo) [Compound 184, cis-2-(4-(cyclopentylamino)phenyl)-1-(2-fluoro-6-methylbenzoyl)-N-(1,2,3,4-tetrahydroisoquinolin-6-yl)octahydro-1H-cyclopenta[b]pyridine-3-carboxamide]	2 to 5 µM	2 to 10 µM
